According to the supplement of paper PMC10307832:

How the values were obtained:
Assay in all cases: relative viability (nuclei count vs DMSO), 5 days (fraction); higher = more cells survive
HCC-78 = system: HCC-78
Procedure, shortened: (§1)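 After 5 days of treatment, lung cancer cells in 1536-well plates were fixed and stained in a single step (final 0.05% Triton X-100, 1% formaldehyde, 1 ug/ml Hoechst) and their nuclei counted on 4× images. Treatment had been applied by pin tool the day after seeding as one drug alone or as a fixed anchor-drug dose with five library-drug doses (not always all listed) in √10 steps. Relative viability is the nuclei count of treated wells divided by that of vehicle wells, and values are medians of duplicate plates.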

NCI-H1915 = system: NCI-H1915
Procedure, shortened: as §1

NCI-H2126 = system: NCI-H2126
Procedure, shortened: as §1

NCI-H2405 = system: NCI-H2405
Procedure, shortened: as §1

LC-2-ad = system: LC-2-ad
Procedure, shortened: as §1

NCI-H520 = system: NCI-H520
Procedure, shortened: as §1

NCI-H2347 = system: NCI-H2347
Procedure, shortened: as §1

COR-L 105 = system: COR-L 105
Procedure, shortened: as §1

EPLC-272H = system: EPLC-272H
Procedure, shortened: as §1

NCI-H2087 = system: NCI-H2087
Procedure, shortened: as §1

NCI-H23 = system: NCI-H23
Procedure, shortened: as §1

LCLC-97TM1 = system: LCLC-97TM1
Procedure, shortened: as §1

ChaGo-K-1 = system: ChaGo-K-1
Procedure, shortened: as §1

PC-14 = system: PC-14
Procedure, shortened: as §1

201T = system: 201T
Procedure, shortened: as §1

NCI-H647 = system: NCI-H647
Procedure, shortened: as §1

HCC-827 = system: HCC-827
Procedure, shortened: as §1

RERF-LC-KJ = system: RERF-LC-KJ
Procedure, shortened: as §1

H3255 = system: H3255
Procedure, shortened: as §1

NCI-H661 = system: NCI-H661
Procedure, shortened: as §1

NCI-H1666 = system: NCI-H1666
Procedure, shortened: as §1

NCI-H650 = system: NCI-H650
Procedure, shortened: as §1

## COc1cc2nccc(Oc3ccc(NC(=O)Nc4cc(C)on4)c(Cl)c3)c2cc1OC [Tivozanib] + CC(=O)c1c(C)c2cnc(Nc3ccc(N4CCNCC4)cn3)nc2n(C2CCCC2)c1=O [Palbociclib] (partner 0.5 µM)
HCC-78; first compound 0.005 µM
  relative viability: 0.514
HCC-78; first compound 0.01581 µM
  relative viability: 0.438
HCC-78; first compound 0.05 µM
  relative viability: 0.474
HCC-78; first compound 0.1581 µM
  relative viability: 0.416
HCC-78; first compound 0.5 µM
  relative viability: 0.463
NCI-H1915; first compound 0.005 µM
  relative viability: 0.537
NCI-H1915; first compound 0.01581 µM
  relative viability: 0.553
NCI-H1915; first compound 0.05 µM
  relative viability: 0.538
NCI-H1915; first compound 0.1581 µM
  relative viability: 0.484
NCI-H1915; first compound 0.5 µM
  relative viability: 0.503
NCI-H2126; first compound 0.005 µM
  relative viability: 0.384
NCI-H2126; first compound 0.01581 µM
  relative viability: 0.345
NCI-H2126; first compound 0.05 µM
  relative viability: 0.352
NCI-H2126; first compound 0.1581 µM
  relative viability: 0.337
NCI-H2126; first compound 0.5 µM
  relative viability: 0.371
NCI-H2405; first compound 0.005 µM
  relative viability: 0.534
NCI-H2405; first compound 0.01581 µM
  relative viability: 0.55
NCI-H2405; first compound 0.05 µM
  relative viability: 0.528
NCI-H2405; first compound 0.1581 µM
  relative viability: 0.527
NCI-H2405; first compound 0.5 µM
  relative viability: 0.466
LC-2-ad; first compound 0.005 µM
  relative viability: 0.471
LC-2-ad; first compound 0.01581 µM
  relative viability: 0.47
LC-2-ad; first compound 0.05 µM
  relative viability: 0.478
LC-2-ad; first compound 0.1581 µM
  relative viability: 0.369
LC-2-ad; first compound 0.5 µM
  relative viability: 0.297
NCI-H520; first compound 0.005 µM
  relative viability: 0.231
NCI-H520; first compound 0.01581 µM
  relative viability: 0.296
NCI-H520; first compound 0.05 µM
  relative viability: 0.238
NCI-H520; first compound 0.1581 µM
  relative viability: 0.19
NCI-H520; first compound 0.5 µM
  relative viability: 0.231
NCI-H2347; first compound 0.005 µM
  relative viability: 0.48
NCI-H2347; first compound 0.01581 µM
  relative viability: 0.424
NCI-H2347; first compound 0.05 µM
  relative viability: 0.462
NCI-H2347; first compound 0.1581 µM
  relative viability: 0.478
NCI-H2347; first compound 0.5 µM
  relative viability: 0.422
COR-L 105; first compound 0.005 µM
  relative viability: 0.411
COR-L 105; first compound 0.01581 µM
  relative viability: 0.436
COR-L 105; first compound 0.05 µM
  relative viability: 0.433
COR-L 105; first compound 0.1581 µM
  relative viability: 0.404
COR-L 105; first compound 0.5 µM
  relative viability: 0.415
EPLC-272H; first compound 0.005 µM
  relative viability: 0.268
EPLC-272H; first compound 0.01581 µM
  relative viability: 0.303
EPLC-272H; first compound 0.05 µM
  relative viability: 0.35
EPLC-272H; first compound 0.1581 µM
  relative viability: 0.348
EPLC-272H; first compound 0.5 µM
  relative viability: 0.282
NCI-H2087; first compound 0.005 µM
  relative viability: 0.271
NCI-H2087; first compound 0.01581 µM
  relative viability: 0.288
NCI-H2087; first compound 0.05 µM
  relative viability: 0.259
NCI-H2087; first compound 0.1581 µM
  relative viability: 0.231
NCI-H2087; first compound 0.5 µM
  relative viability: 0.231
NCI-H23; first compound 0.005 µM
  relative viability: 0.459
NCI-H23; first compound 0.01581 µM
  relative viability: 0.569
NCI-H23; first compound 0.05 µM
  relative viability: 0.488
NCI-H23; first compound 0.5 µM
  relative viability: 0.497
LCLC-97TM1; first compound 0.005 µM
  relative viability: 0.233
LCLC-97TM1; first compound 0.01581 µM
  relative viability: 0.245
LCLC-97TM1; first compound 0.05 µM
  relative viability: 0.193
LCLC-97TM1; first compound 0.1581 µM
  relative viability: 0.268
LCLC-97TM1; first compound 0.5 µM
  relative viability: 0.214
ChaGo-K-1; first compound 0.005 µM
  relative viability: 0.879
ChaGo-K-1; first compound 0.01581 µM
  relative viability: 0.916
ChaGo-K-1; first compound 0.05 µM
  relative viability: 0.898
ChaGo-K-1; first compound 0.1581 µM
  relative viability: 0.947
ChaGo-K-1; first compound 0.5 µM
  relative viability: 0.886
PC-14; first compound 0.005 µM
  relative viability: 0.528
PC-14; first compound 0.01581 µM
  relative viability: 0.538
PC-14; first compound 0.05 µM
  relative viability: 0.549
PC-14; first compound 0.1581 µM
  relative viability: 0.54
PC-14; first compound 0.5 µM
  relative viability: 0.394
201T; first compound 0.005 µM
  relative viability: 0.395
201T; first compound 0.01581 µM
  relative viability: 0.39
201T; first compound 0.05 µM
  relative viability: 0.366
201T; first compound 0.1581 µM
  relative viability: 0.373
201T; first compound 0.5 µM
  relative viability: 0.357
NCI-H647; first compound 0.005 µM
  relative viability: 0.396
NCI-H647; first compound 0.01581 µM
  relative viability: 0.391
NCI-H647; first compound 0.05 µM
  relative viability: 0.3
NCI-H647; first compound 0.1581 µM
  relative viability: 0.32
NCI-H647; first compound 0.5 µM
  relative viability: 0.35
HCC-827; first compound 0.005 µM
  relative viability: 0.498
HCC-827; first compound 0.01581 µM
  relative viability: 0.506
HCC-827; first compound 0.05 µM
  relative viability: 0.539
HCC-827; first compound 0.1581 µM
  relative viability: 0.448
HCC-827; first compound 0.5 µM
  relative viability: 0.412
RERF-LC-KJ; first compound 0.005 µM
  relative viability: 1.01
RERF-LC-KJ; first compound 0.01581 µM
  relative viability: 1.05
RERF-LC-KJ; first compound 0.05 µM
  relative viability: 1.11
RERF-LC-KJ; first compound 0.1581 µM
  relative viability: 1.08
RERF-LC-KJ; first compound 0.5 µM
  relative viability: 1.04
H3255; first compound 0.005 µM
  relative viability: 0.313
H3255; first compound 0.01581 µM
  relative viability: 0.356
H3255; first compound 0.05 µM
  relative viability: 0.294
H3255; first compound 0.1581 µM
  relative viability: 0.334
H3255; first compound 0.5 µM
  relative viability: 0.328
NCI-H661; first compound 0.005 µM
  relative viability: 0.401
NCI-H661; first compound 0.01581 µM
  relative viability: 0.387
NCI-H661; first compound 0.05 µM
  relative viability: 0.422
NCI-H661; first compound 0.1581 µM
  relative viability: 0.409
NCI-H661; first compound 0.5 µM
  relative viability: 0.387
NCI-H1666; first compound 0.005 µM
  relative viability: 0.628
NCI-H1666; first compound 0.01581 µM
  relative viability: 0.666
NCI-H1666; first compound 0.05 µM
  relative viability: 0.639
NCI-H1666; first compound 0.1581 µM
  relative viability: 0.668
NCI-H1666; first compound 0.5 µM
  relative viability: 0.642
NCI-H650; first compound 0.005 µM
  relative viability: 0.297
NCI-H650; first compound 0.01581 µM
  relative viability: 0.391
NCI-H650; first compound 0.05 µM
  relative viability: 0.338
NCI-H650; first compound 0.1581 µM
  relative viability: 0.377
NCI-H650; first compound 0.5 µM
  relative viability: 0.27
